Legend:
Rodents [1] = test: Forced swim test (FST) after microinjection; type: in vivo; conditions: acute microinjection, versus controls
Text: (§1) This is also in the same direction as the FGF2 data, consistent with the fact that both FGF2 and NCAM interact with the FGF receptor.
(§2) These observations are nevertheless consistent with the conclusions drawn from the microinjection studies above.

Rodents [2] = test: Elevated plus maze (EPM) after microinjection; type: in vivo; conditions: for time in the center quadrant of EPM / time in the closed arms of EPM / time in the open arms of EPM: acute microinjection, versus controls
Text: as §1, §2

[3] = system: hippocampal gene expression; test: Hippocampal gene expression in adults after early postnatal FGF2 (histochemical and RNA expression assays); type: in vivo, rat; conditions: adult rats, FGF2 20 ng/g s.c. the day after birth
Description: (§3) Methods. Sprague-Dawley rats were injected with either vehicle or FGF2 (20 ng/g, s.c.) the day after birth and sacrificed after Morris water maze testing as adults. We assessed changes in gene expression using both a candidate approach and a gene discovery approach with laser-capture microdissection of the dentate gyrus followed by microarray analyses.

Sprague-Dawley rats [4] = test: Morris water maze in adults after early postnatal FGF2; type: in vivo, rat; conditions: FGF2 20 ng/g s.c. the day after birth, tested as adults
Description: as §3

rats = test: Elevated plus-maze (EPM) and light-dark (LD) anxiety test after chronic FGF2; type: in vivo, rat; conditions: FGF2 5 ng/g i.p. every 48 hours for 3 weeks
Description: Anxiety disorders have a high comorbidity with other neuropsychiatric disorders including Major Depression (MD). […] Rats were placed into “high anxiety” (LR) or “low anxiety” (HR) groups based on their behavior in a variety of motor and behavioral tests. Both groups of animals were administered either FGF2 (5 ng/g) or vehicle by intraperitoneal injection every 48 hours for 3 weeks. One day after the last FGF2 injection, all animals were tested in the elevated plus-maze (EPM) and light-dark (LD) anxiety test.
The apparatus for the EPM test is constructed of black Plexiglass with […] (70 cm from the floor, 45 cm long, and 12 cm wide). Illumination is provided by a 40-watt desk lamp facing a wall and placed behind one of the closed arms. The scientists put the animal inside the system. Animals that are less anxious spend more time in the open arms whereas animals that are more anxious spend less time in the open arms.
The LD test is conducted in a 30×60×30-cm Plexiglas shuttle box with a translucent cover. Each box is divided into two equal-sized compartments by a wall with a 12 cm-wide open door. One compartment is painted white and brightly illuminated, and the other is painted black with very dim light. The time each rat spends in each compartment is monitored by rows of five photocells located 2.5 cm above the grid floor of each compartment. […]

[5] = system: FGFR2 and FGFR3 exon IIIc:IIIb splice variant ratio; test: Real time RT-PCR of exon IIIc:IIIb splice variant ratio in frontal cortex; type: in vivo, rat; conditions: FGF2 5 ng/g i.p. every 48 hours for three weeks, NS or S group, P>0.1
Description: Animals. Twenty-four male Sprague-Dawley rats weighing 220-250g were ordered from Charles River (Wilmington, Mass.) and remained undisturbed for one week to acclimatize to housing conditions. The animals were housed in pairs on a 12 h light-dark cycle (lights on 6:00 A.M.) with food and water available ad libitum. All experiments were conducted in accordance with the NIH Guide for the Care and Use of Animals and the University Committee on the Use and Care of Animals.
FGF2 injection treatments and chronic unpredictable stress (CUS) conditions. […]
Total RNA extraction. […] Using the Bioanalyzer's concentration readings, the samples were normalized to 25 ng/μL of total RNA per subject and stored at −80° C.
cDNA synthesis. cDNA was synthesized using the iScript cDNA Synthesis Kit (Bio-Rad, Hercules, Calif.). […] The double-stranded cDNA solutions were then analyzed for quality and concentration using Invitrogen's Quant-iT PicoGreen dsDNA kit. […] The fluorescently labeled samples were analyzed with a 1420 Victor^2 Multilabel Counter (EG&G Wallac, Wellesley, Mass.) using the basic Fluorescein protocol. […]
Real time RT-PCR primer design. […] Exon sequences were analyzed using NCBI's nucleotide and protein BLAST and were matched with their corresponding protein products within the receptor structures (FIG. 11). […]

Sprague-Dawley rats [6] = test: Forced swim testing after chronic FGF2; type: in vivo, rat; conditions: chronic FGF2 administration
Description: FGF2 injection treatments and chronic unpredictable stress (CUS) conditions. Half of the rats (n=12) were administered vehicle (0.1M PBS with 100 μg/mL bovine serum albumin), and the other half (n=12) were administered human recombinant FGF2 dissolved in vehicle in 5 ng/g dosages (Sigma, St. Louis, Mo.) every 48 hours for three weeks. All treatments were injected intra-peritonealy. During the same three week period as the FGF2 treatments, the vehicle group was either handled (n=6) or exposed to CUS (n=6). Likewise, the FGF2 injected group was either handled (n=6) or exposed to CUS (n=6). The animals were exposed to the following chronic unpredictable stressors (described in Isgor et al. (2004)): ether (30 s), cold (2 h), noise (15 m), isolation (24 h), or restraint (2 h). The stressors were randomized to avoid habituation; sessions occurred once each day in either the morning or afternoon. The 2×2 (condition by treatment) design divided the subjects into nonstressed/vehicle (NS/V), nonstressed/FGF2 injection (NS/F), stressed/vehicle (S/V), and stressed/FGF2 injection (S/F) groups.
Forced swim testing. To test for possible FGF2 injection effects on anti-depressant behavior for other studies, all animals were subjected to forced swim testing according to Lucki (1997) 24 h after the termination of the FGF2 treatments and CUS conditions.

Row | Substance | depression-like behavior (FST) (Rodents [1]) | immobility in FST (Rodents [1]) | time in the center quadrant of EPM (Rodents [2]) | time in the closed arms of EPM (Rodents [2]) | time in the open arms of EPM (Rodents [2]) | swimming in FST (Rodents [1]) | other results
1 | EVYVVAENQQGKSKA [NCAM] | less depression-like behavior | less immobility | significantly less time | more time (although not signficantly more time) | less time |  | 
2 | FGF2: human recombinant FGF2 (Sigma), fibroblast growth factor 2 | less depression-like behavior | less immobility |  | significantly more time | less time | more swimming | expression of CCK [3]: increased; expression of GAP-43 [3]: increased; expression of NCAM [3]: decreased; expression of Rgs4 [3]: increased; expression of SST [3]: increased; expression of Vgf [3]: increased; expression of trkB [3]: increased; time to find a hidden platform in Morris Water maze test (average) (Sprague-Dawley rats [4]): 20 s; performance in learning and memory tests (Sprague-Dawley rats [4]; versus vehicle): significantly better; anxiety-like behavior (EPM) (Rodents [2]; acute injection): increased; anxiety versus vehicle (rats): less anxious; anxiety-reducing effects in innately more anxious (LR) rats (rats; LR versus HR): more pronounced; effect on exon IIIc:IIIb ratio [5]: did not alter; depression-like behavior (Sprague-Dawley rats [6]): decreases depression-like behavior
3 | HFKDPKRLY [FGF system peptide inhibitor] | increased depression-like behavior | more immobility | significantly more time | less time | equal time | less swimming | climbing in FST (Rodents [1]): significantly less climbing

From patent US20110092433A1, “FGF9-RELATED METHODS FOR TREATING ANXIETY” (THE BOARD OF TRUSTEES OF THE LELAND STANFORD JUNIOR …, priority 2007, published 2011)
